What was measured:
Experiment in all cases: biochemical
Set-up in all cases: DiscoverX KinomeScan competition binding assay across human kinases; per cent of control at 10 and 100 uM
TNIK = TNIK (Homo sapiens, UniProt Q9UKE5); settings: competition binding, % of control
How it was run: (§1)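 KinomeScan competition binding was run across a human kinase panel at 10 μM and 100 μM levosimendan. Results are %control = (test − positive control)/(negative control − positive control) × 100.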

MAP3K15 = MAP3K15 (Homo sapiens, UniProt Q6ZN16); settings: competition binding, % of control; read-out: Percent Control (100 uM Levosimendan)
How it was run: as §1

RIOK3 = target: T1, RIOK3 (Homo sapiens, UniProt O14730); settings: competition binding, % of control
T1 sequence (O14730 1-519): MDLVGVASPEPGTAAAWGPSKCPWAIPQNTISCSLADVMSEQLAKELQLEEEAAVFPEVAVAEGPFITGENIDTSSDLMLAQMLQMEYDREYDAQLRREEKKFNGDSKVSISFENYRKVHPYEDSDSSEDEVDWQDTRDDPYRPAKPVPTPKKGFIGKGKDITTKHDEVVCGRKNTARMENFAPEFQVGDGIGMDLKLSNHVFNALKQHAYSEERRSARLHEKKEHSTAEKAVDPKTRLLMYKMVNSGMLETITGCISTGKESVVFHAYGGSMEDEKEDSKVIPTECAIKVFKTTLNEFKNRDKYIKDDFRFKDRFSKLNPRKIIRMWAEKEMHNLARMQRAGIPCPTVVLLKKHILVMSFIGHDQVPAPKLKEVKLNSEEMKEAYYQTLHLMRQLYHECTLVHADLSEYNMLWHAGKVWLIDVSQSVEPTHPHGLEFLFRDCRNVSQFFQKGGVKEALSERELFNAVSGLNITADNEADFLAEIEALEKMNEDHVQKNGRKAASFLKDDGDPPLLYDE
How it was run: as §1

[1] = target: T2, RSK1(Kin.Dom.1-N-terminal) (Homo sapiens, UniProt Q15418); settings: competition binding, % of control; read-out: Percent Control (100 uM Levosimendan)
T2 construct: gene RPS6KA1; Kin.Dom.1-N-terminal
How it was run: as §1

CIT = CIT (Homo sapiens, UniProt O14578); settings: competition binding, % of control; read-out: Percent Control (100 uM Levosimendan)
How it was run: as §1

NEK11 = NEK11 (Homo sapiens, UniProt Q8NG66); settings: competition binding, % of control; read-out: Percent Control (100 uM Levosimendan)
How it was run: as §1

NEK3 = NEK3 (Homo sapiens, UniProt P51956); settings: competition binding, % of control; read-out: Percent Control (100 uM Levosimendan)
How it was run: as §1

MAP4K5 = MAP4K5 (Homo sapiens, UniProt Q9Y4K4); settings: competition binding, % of control; read-out: Percent Control (100 uM Levosimendan)
How it was run: as §1

TRKC = target: T3, TRKC (Homo sapiens, UniProt Q16288); settings: competition binding, % of control; read-out: Percent Control (100 uM Levosimendan)
T3 construct: gene NTRK3
How it was run: as §1

FER = FER (Homo sapiens, UniProt P16591); settings: competition binding, % of control; read-out: Percent Control (100 uM Levosimendan)
How it was run: as §1

SRPK1 = SRPK1 (Homo sapiens, UniProt Q96SB4); settings: competition binding, % of control
How it was run: as §1

MAPKAPK2 = MAPKAPK2 (Homo sapiens, UniProt P49137); settings: competition binding, % of control; read-out: Percent Control (100 uM Levosimendan)
How it was run: as §1

ERBB4 = ERBB4 (Homo sapiens, UniProt Q15303); settings: competition binding, % of control; read-out: Percent Control (100 uM Levosimendan)
How it was run: as §1

DYRK1B = DYRK1B (Homo sapiens, UniProt Q9Y463); settings: competition binding, % of control; read-out: Percent Control (100 uM Levosimendan)
How it was run: as §1

CDK4-cyclinD3 = target: T4, CDK4-cyclinD3 (Homo sapiens, UniProt P11802); settings: competition binding, % of control; read-out: Percent Control (100 uM Levosimendan)
T4 construct: cyclinD3
How it was run: as §1

[2] = read-out: Percent Control (10 uM Levosimendan)
[3] = read-out: Percent Control (100 uM Levosimendan)

SRPK1, sequence (Q96SB4 whole entry): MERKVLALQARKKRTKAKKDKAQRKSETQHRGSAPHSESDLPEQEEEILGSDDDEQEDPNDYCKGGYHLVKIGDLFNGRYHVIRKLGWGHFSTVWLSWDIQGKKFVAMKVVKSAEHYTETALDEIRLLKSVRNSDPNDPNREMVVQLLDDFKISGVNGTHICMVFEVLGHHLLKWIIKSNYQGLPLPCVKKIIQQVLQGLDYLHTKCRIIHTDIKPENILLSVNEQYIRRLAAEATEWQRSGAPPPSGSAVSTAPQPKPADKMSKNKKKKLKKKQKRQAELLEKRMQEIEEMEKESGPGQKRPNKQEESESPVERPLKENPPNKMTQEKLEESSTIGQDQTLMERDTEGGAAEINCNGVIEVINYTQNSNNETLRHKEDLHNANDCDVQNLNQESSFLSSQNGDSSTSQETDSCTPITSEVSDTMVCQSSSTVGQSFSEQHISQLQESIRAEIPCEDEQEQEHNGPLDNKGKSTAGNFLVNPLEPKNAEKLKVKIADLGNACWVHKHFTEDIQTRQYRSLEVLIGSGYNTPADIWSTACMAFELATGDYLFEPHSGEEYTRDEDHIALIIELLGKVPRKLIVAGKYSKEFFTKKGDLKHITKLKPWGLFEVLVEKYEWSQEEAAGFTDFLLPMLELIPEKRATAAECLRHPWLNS
TNIK, sequence (Q9UKE5 whole entry): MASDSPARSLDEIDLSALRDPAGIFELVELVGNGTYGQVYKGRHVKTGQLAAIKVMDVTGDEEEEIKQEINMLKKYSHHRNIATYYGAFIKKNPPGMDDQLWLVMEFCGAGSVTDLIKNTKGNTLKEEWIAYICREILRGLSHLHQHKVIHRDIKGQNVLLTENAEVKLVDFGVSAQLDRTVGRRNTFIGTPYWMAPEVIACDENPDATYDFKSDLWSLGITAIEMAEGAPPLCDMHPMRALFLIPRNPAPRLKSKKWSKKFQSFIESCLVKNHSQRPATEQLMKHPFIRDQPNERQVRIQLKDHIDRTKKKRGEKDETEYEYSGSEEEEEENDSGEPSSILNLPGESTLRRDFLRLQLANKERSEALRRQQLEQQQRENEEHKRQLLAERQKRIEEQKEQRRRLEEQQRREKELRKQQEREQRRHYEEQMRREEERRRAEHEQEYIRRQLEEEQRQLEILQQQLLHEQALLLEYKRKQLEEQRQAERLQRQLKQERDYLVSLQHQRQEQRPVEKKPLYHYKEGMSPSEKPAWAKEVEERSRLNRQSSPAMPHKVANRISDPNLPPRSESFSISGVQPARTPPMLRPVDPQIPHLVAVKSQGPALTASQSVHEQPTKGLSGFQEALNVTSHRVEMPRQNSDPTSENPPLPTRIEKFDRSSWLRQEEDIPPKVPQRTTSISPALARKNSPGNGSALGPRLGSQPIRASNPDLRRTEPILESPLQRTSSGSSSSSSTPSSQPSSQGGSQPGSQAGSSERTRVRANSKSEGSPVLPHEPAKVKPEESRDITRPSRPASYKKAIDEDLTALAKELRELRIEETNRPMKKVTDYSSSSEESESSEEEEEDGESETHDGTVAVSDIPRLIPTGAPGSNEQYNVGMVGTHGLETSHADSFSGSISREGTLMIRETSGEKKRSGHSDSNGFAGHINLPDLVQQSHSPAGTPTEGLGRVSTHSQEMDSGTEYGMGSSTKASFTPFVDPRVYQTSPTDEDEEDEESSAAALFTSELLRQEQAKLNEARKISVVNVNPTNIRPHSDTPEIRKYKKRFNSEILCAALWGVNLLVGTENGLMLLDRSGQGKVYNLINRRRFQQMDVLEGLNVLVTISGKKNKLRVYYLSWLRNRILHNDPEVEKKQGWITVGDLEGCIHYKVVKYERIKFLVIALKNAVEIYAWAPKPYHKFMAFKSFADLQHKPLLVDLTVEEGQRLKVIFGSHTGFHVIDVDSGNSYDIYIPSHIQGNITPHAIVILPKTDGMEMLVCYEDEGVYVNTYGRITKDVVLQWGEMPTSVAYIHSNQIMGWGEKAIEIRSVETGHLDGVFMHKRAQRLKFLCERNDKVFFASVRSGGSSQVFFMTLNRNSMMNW
MAPKAPK2, sequence (P49137 whole entry): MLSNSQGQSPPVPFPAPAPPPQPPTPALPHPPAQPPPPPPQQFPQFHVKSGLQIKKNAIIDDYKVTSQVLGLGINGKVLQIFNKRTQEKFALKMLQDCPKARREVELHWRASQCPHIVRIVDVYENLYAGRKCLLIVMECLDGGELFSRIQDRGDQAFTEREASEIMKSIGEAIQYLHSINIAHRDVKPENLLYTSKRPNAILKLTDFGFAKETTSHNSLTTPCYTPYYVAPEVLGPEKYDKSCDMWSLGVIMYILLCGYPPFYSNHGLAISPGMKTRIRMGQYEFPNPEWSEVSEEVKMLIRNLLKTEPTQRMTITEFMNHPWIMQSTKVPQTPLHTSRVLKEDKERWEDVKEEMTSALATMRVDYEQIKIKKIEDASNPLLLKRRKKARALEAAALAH
NEK11, sequence (Q8NG66 whole entry): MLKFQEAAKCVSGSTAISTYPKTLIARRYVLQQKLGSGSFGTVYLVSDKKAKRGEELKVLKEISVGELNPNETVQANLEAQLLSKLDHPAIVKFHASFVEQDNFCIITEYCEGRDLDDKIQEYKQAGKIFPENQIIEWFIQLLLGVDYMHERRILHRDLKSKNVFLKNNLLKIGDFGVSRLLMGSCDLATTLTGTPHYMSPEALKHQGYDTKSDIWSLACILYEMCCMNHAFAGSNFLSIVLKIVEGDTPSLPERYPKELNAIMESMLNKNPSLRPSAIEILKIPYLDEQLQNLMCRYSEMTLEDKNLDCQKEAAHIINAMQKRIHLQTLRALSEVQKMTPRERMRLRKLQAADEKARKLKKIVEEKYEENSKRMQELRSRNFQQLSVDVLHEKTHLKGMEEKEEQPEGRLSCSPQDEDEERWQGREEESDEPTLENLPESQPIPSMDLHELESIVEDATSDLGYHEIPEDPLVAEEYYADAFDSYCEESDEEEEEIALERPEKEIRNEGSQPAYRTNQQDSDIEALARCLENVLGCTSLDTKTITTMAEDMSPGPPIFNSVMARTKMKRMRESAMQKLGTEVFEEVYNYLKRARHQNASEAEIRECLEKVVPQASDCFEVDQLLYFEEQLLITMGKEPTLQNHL
T4 sequence (P11802 whole entry): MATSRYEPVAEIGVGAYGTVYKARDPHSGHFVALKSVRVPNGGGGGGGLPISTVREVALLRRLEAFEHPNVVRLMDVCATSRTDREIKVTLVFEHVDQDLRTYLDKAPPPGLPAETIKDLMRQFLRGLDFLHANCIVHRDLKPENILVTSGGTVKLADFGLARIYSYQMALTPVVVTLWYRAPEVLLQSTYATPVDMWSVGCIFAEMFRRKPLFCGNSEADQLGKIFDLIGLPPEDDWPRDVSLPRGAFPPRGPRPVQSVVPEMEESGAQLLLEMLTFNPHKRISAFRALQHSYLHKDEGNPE
T4 sequence (P30281 whole entry partner): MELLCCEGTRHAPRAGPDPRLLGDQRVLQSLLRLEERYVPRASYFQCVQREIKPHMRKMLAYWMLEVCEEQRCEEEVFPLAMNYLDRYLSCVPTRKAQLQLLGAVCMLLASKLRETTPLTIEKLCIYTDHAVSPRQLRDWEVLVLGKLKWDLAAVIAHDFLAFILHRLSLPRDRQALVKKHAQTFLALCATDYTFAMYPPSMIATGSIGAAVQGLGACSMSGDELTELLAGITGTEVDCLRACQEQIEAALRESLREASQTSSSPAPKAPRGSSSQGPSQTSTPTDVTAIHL
FER, sequence (P16591 whole entry): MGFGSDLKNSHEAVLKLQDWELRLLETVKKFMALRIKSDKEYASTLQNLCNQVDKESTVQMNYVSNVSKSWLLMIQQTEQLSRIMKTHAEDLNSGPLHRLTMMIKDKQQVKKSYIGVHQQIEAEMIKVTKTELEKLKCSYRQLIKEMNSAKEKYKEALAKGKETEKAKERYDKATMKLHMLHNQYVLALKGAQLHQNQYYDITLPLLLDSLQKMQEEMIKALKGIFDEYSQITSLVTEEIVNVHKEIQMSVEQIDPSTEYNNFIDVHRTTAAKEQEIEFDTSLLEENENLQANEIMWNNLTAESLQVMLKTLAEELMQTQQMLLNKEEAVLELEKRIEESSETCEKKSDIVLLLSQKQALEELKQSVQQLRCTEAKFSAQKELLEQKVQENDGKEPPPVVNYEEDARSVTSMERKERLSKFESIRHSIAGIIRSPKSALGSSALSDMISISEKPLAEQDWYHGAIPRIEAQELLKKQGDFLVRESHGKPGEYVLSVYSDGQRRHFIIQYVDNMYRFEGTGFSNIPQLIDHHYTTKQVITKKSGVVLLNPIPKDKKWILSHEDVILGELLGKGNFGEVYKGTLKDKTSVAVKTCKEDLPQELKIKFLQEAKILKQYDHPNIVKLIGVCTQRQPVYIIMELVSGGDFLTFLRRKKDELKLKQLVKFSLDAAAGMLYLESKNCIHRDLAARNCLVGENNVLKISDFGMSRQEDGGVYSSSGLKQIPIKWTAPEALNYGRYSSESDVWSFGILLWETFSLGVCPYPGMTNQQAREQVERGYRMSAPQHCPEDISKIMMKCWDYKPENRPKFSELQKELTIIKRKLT
NEK3, sequence (P51956 whole entry): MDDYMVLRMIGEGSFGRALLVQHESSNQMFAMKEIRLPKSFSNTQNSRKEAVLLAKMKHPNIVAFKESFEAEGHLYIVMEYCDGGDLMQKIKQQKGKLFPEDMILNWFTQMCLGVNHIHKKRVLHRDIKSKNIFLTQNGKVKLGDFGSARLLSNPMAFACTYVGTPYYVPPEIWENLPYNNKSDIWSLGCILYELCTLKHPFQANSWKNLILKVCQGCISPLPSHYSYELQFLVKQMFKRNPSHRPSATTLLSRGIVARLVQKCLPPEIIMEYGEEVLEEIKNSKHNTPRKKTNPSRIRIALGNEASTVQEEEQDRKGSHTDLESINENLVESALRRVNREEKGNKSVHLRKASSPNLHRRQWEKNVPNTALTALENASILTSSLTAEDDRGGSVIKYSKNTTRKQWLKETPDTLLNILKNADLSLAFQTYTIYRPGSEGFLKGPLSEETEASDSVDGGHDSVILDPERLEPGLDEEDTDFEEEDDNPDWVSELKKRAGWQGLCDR

remaining binding at 10 µM (TNIK; [2]): 77%
remaining binding at 100 µM (TNIK; [3]): 32%
remaining binding at 100 µM (MAP3K15): 100%
remaining binding at 10 µM (RIOK3; [2]): 15%
remaining binding at 100 µM (RIOK3; [3]): 0%
remaining binding at 100 µM [1]: 84%
remaining binding at 100 µM (CIT): 59%
remaining binding at 100 µM (NEK11): 100%
remaining binding at 100 µM (NEK3): 78%
remaining binding at 100 µM (MAP4K5): 100%
remaining binding at 100 µM (TRKC): 65%
remaining binding at 100 µM (FER): 100%
remaining binding at 10 µM (SRPK1; [2]): 36%
remaining binding at 100 µM (SRPK1; [3]): 40%
remaining binding at 100 µM (MAPKAPK2): 100%
remaining binding at 100 µM (ERBB4): 63%
remaining binding at 100 µM (DYRK1B): 100%
remaining binding at 100 µM (CDK4-cyclinD3): 100%
SMILES: C[C@@H]1CC(=O)NN=C1c1ccc(NN=C(C#N)C#N)cc1 [levosimendan]
